Experimental data: patent US20070212700A1, “Methods of using and analyzing biological sequence data” (THE BOARD OF REGENTS OF THE UNIVERSITY OF TEXAS SYSTEM, priority 2005, published 2007)

Legend:
[1] = tested on: biotinylated oriented peptide libraries (group I PPxY, group II PPLP, group III PPR, group IV pS/pT-P); test: Oriented peptide library binding assay (ELISA) for WW domain specificity
Excerpt: FIGS. 25A-D: Assays for binding affinity and specificity in WW domains. FIG. 25A: five N-terminal biotinylated oriented peptide libraries were constructed to present either a proline-only control (biotin-Z-GMAxxxxPxxxxAKKK (SEQ ID NO:162)) or the four different characteristic WW domain binding motifs: group I-oriented (biotin-Z-GMAxxxPPxYxxxAKKK-C (SEQ ID NO:163)), group II-oriented (biotin-Z-GMAxxxPPLPxxxAKKK (SEQ ID NO:164)), group III-oriented (biotin-Z-GMAxxxPPRxxxAKKK (SEQ ID NO:165)), and group IV-oriented (biotin-Z-GMAxxxxpSPxxxxAKKK (SEQ ID NO:166)), where Z is 6-aminohexanoic acid, pS is phosphoserine, and x denotes all amino acids except Cys. Binding to these peptides indicte affinity for the consensus motifes listed in FIG. 25A (SEQ ID NO:167-171). […] FIG. 25C: binding specificity of artificial WW domains from the CC55 set. Binding is reported in fold above background binding in the absence of target peptides. Shown are the mean and standard deviation of at least four independent assays. FIG. 25D: the binding specificity of additional artificial and natural WW domains.
An oriented peptide library binding assay was developed for measuring WW domain specificity, and a set of natural and artificial sequences was studied. Four biotinylated degenerate peptide libraries were constructed, each oriented around one group-specific WW recognition motif, and binding was detected using an ELISA assay (see FIGS. 25A and 25B). For example, the group I oriented peptide library was biotin-Z-GMAxxxPPxYxxxAKKK (SEQ ID NO:163), where Z is 6-aminohexanoic acid and x stands for any amino acid except cysteine (theoretical degeneracy of 8.9×10^8 sequences). A fifth proline-oriented library was also made as a control for non-specific binding. Natural WW domains that folded in the work described above were subjected to this assay. […] Similarly, the assay confirms known group III (FE65) and IV (Pin1) domains.

PPxY-containing peptide = test: Peptide binding to wild-type and mutant Nedd4.3 WW domains by isothermal titration calorimetry (double mutant cycle); conditions: Nedd4.3 WW domain
Excerpt: FIGS. 6A-C: A spatially distributed network underlying WW specificity. FIG. 6A: two views of the Nedd4.3 WW domain (in blue CPK), with residues comprising the cluster of eight co-evolving residues as red CPK with a transparent van der Waals surface. The cluster forms a physically connected network that links binding site residues at positions 21, 23, and 28 with the opposite side residues at positions 3 and 4 through a few intervening residues at positions 6, 8, and 22. FIG. 6B: the thermodynamic mutant cycle formalism for measuring energetic coupling between a pair of mutations. The method involves measuring equilibrium dissociation constants for peptide binding for four proteins: wild-type (WT), a mutation at one site (M1), a mutation at a second site (M2), and the double mutation M1, M2. The fold effect of M1 is calculated for the wild type background (X1) or for the background of the second mutation (X2). The thermodynamic coupling parameter Ω is defined as the ratio of these two fold effects (X1/X2)— the degree to which the effect of one mutation depends on the second. FIG. 6C: double mutant cycle analysis of co-evolving positions in the N39 (Nedd4.3) WW domain. […] Peptide binding to wild-type and mutant WW domains was measured using isothermal titration calorimetery. […]

Row | fold effect of single mutation on peptide binding relative to wild-type (PPxY-containing peptide; PPxY-containing peptide, ITC) | effect of mutation in the background of T28A (PPxY-containing peptide; mutant cycle) | Substance | binding specificity / binding class [1]
1 |  |  | FE65: natural WW domain, known group III (SDLPAGWMRVQDTSGTYYWHIPTGTTQWEPPGR) | group III
2 | 5.15+/−0.99 fold | diminished | L3A: alanine mutant at position 3 of the Nedd4.3 WW domain (GPAPPGWEERTHTDGRVFFINHNIKKTQWEDPRM) | 
3 |  |  | Nedd4.3: natural group I WW domain, Nedd4.3 (N39) (GPLPPGWEERTHTDGRVFFINHNIKKTQWEDPRM) | specific interaction with the PPxY-containing sequences
4 |  |  | CC55-15: artificial WW domain from the CC55 set (SEQ ID NO:35) (AGLPQGWEAAFDNSGAVYYVNPNTGKTQWERPCLEN) | group III binding profile
